How the values were obtained:
[1] = tested on: Tyrosine-protein kinase ABL1 (Homo sapiens), P00519 [F317L]; settings: Compound concentration 1000.0 nM
[2] = target: Activin receptor type-1B (Homo sapiens) (UniProt P36896); settings: Compound concentration 1000.0 nM
[3] = target: Aurora kinase C (Homo sapiens) (UniProt Q9UQB9); settings: Compound concentration 1000.0 nM
[4] = target: Bone morphogenetic protein receptor type-2 (Homo sapiens) (UniProt Q13873); settings: Compound concentration 1000.0 nM
[5] = tested on: Serine/threonine-protein kinase B-raf (Homo sapiens), P15056 [V600E]; settings: Compound concentration 1000.0 nM
[6] = target: Serine/threonine-protein kinase BRSK1 (Homo sapiens) (UniProt Q8TDC3); settings: Compound concentration 1000.0 nM
Sequence of Serine/threonine-protein kinase BRSK1 (Homo sapiens) (Q8TDC3 whole entry): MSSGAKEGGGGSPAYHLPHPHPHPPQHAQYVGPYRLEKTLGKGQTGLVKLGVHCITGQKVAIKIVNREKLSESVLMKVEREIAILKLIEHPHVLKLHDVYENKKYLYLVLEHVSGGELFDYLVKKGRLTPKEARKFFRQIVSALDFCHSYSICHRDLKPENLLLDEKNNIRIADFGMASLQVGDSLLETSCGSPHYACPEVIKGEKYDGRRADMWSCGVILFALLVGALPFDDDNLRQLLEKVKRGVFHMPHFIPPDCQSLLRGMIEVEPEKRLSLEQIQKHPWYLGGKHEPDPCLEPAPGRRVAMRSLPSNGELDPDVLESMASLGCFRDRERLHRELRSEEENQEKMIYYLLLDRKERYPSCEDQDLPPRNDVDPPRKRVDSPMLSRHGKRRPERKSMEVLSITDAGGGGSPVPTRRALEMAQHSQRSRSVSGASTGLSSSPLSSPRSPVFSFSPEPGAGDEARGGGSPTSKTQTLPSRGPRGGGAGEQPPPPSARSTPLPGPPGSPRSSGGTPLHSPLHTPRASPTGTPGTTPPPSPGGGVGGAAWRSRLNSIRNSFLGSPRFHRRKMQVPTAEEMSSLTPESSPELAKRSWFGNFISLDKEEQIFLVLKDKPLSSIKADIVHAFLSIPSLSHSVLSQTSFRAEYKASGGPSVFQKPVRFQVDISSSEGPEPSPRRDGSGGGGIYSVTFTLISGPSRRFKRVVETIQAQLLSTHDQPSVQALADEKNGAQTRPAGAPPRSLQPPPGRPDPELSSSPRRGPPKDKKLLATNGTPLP

[7] = target: Cyclin-dependent kinase 4 (Homo sapiens) (UniProt P11802); settings: Compound concentration 1000.0 nM
Sequence of Cyclin-dependent kinase 4 (Homo sapiens) (P11802 whole entry): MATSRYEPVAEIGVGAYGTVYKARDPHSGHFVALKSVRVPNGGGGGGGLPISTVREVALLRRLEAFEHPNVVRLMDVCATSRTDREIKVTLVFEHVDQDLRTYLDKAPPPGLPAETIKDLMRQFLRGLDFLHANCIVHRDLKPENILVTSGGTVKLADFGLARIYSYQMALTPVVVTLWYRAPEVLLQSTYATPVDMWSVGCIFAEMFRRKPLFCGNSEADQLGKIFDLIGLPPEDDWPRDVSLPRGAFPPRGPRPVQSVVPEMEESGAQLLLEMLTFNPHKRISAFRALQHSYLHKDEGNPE

[8] = target: Citron Rho-interacting kinase (Homo sapiens) (UniProt O14578); settings: Compound concentration 1000.0 nM
[9] = target: Serine/threonine-protein kinase DCLK3 (Homo sapiens) (UniProt Q9C098); settings: Compound concentration 1000.0 nM
[10] = target: Serine/threonine-protein kinase 17A (Homo sapiens) (UniProt Q9UEE5); settings: Compound concentration 1000.0 nM
[11] = tested on: Epidermal growth factor receptor (Homo sapiens), P00533 [UNDEFINED MUTATION]; settings: Compound concentration 1000.0 nM
[12] = tested on: Epidermal growth factor receptor (Homo sapiens), P00533 [UNDEFINED MUTATION]; settings: Compound concentration 1000.0 nM; remark: listed apart in the source
[13] = tested on: Epidermal growth factor receptor (Homo sapiens), P00533 [L858R,T790M]; settings: Compound concentration 1000.0 nM
[14] = target: Ephrin type-A receptor 8 (Homo sapiens) (UniProt P29322); settings: Compound concentration 1000.0 nM
[15] = target: Receptor tyrosine-protein kinase erbB-3 (Homo sapiens) (UniProt P21860); settings: Compound concentration 1000.0 nM
[16] = target: Serine/threonine-protein kinase/endoribonuclease IRE1 (Homo sapiens) (UniProt O75460); settings: Compound concentration 1000.0 nM
[17] = target: Vascular endothelial growth factor receptor 1 (Homo sapiens) (UniProt P17948); settings: Compound concentration 1000.0 nM
Sequence of Vascular endothelial growth factor receptor 1 (Homo sapiens) (P17948 whole entry): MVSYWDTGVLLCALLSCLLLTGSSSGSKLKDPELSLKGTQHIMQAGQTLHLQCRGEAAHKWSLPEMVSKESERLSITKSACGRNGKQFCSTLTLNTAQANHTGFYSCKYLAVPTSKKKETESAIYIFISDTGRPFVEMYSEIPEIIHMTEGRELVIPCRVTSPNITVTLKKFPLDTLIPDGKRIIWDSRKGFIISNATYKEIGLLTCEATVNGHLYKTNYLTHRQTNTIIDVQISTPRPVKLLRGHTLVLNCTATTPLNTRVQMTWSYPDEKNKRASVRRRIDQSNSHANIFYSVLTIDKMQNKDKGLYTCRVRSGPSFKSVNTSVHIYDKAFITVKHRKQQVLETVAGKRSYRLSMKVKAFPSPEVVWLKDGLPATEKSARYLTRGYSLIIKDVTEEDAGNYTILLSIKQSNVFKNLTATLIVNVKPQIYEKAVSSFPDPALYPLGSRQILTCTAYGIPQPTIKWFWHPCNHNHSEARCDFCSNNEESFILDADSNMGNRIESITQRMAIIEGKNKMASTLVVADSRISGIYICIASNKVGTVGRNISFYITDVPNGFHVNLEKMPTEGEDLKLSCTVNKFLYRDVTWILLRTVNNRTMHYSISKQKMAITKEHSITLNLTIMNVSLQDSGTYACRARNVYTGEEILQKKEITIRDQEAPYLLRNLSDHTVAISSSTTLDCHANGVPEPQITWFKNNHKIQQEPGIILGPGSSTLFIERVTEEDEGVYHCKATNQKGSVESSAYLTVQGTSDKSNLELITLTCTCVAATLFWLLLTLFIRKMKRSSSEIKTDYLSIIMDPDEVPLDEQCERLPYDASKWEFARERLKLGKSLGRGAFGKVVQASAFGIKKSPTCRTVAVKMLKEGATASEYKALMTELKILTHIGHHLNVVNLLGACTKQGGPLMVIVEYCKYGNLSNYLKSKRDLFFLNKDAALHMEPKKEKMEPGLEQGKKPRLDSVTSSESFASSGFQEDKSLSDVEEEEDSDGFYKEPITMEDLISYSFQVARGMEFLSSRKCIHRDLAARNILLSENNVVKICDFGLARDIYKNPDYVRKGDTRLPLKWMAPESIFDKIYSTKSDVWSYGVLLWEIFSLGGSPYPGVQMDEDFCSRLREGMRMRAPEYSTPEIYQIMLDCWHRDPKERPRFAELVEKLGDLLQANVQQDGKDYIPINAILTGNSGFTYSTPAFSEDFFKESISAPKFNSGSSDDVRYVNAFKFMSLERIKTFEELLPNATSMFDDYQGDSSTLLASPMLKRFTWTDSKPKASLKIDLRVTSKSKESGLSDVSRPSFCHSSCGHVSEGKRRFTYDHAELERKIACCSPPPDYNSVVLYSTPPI

[18] = target: Receptor-type tyrosine-protein kinase FLT3 (Homo sapiens) (UniProt P36888); settings: Compound concentration 1000.0 nM
[19] = target: Rhodopsin kinase GRK1 (Homo sapiens) (UniProt Q15835); settings: Compound concentration 1000.0 nM
[20] = target: Inhibitor of nuclear factor kappa-B kinase subunit alpha (Homo sapiens) (UniProt O15111); settings: Compound concentration 1000.0 nM
[21] = tested on: Mast/stem cell growth factor receptor Kit (Homo sapiens), P10721 [D816V]; settings: Compound concentration 1000.0 nM
[22] = target: Serine/threonine-protein kinase LATS1 (Homo sapiens) (UniProt O95835); settings: Compound concentration 1000.0 nM
[23] = target: Serine/threonine-protein kinase MARK1 (Homo sapiens) (UniProt Q9P0L2); settings: Compound concentration 1000.0 nM
Sequence of Serine/threonine-protein kinase MARK1 (Homo sapiens) (Q9P0L2 whole entry, looked up): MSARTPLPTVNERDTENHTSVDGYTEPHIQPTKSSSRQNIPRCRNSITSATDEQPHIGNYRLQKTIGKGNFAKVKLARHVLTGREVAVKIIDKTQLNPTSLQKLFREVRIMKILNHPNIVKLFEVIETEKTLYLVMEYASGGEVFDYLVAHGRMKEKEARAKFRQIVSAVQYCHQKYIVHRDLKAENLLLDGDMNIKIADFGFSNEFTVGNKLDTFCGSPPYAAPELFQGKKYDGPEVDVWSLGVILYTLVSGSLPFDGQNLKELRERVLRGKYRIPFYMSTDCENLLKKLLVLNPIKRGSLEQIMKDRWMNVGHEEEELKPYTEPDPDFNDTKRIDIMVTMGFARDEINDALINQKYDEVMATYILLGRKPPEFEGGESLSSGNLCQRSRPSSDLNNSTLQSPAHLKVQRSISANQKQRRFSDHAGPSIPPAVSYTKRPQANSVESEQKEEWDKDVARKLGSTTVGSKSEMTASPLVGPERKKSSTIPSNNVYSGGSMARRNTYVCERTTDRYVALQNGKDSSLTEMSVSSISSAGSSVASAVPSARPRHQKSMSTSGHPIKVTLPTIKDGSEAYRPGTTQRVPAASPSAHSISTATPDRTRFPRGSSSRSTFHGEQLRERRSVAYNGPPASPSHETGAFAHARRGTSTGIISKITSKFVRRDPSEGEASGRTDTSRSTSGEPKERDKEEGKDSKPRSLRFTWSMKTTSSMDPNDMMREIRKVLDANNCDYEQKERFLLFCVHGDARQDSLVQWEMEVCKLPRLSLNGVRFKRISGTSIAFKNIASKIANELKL

[24] = target: Dual specificity mitogen-activated protein kinase kinase 4 (Homo sapiens) (UniProt P45985); settings: Compound concentration 1000.0 nM
[25] = target: Dual specificity mitogen-activated protein kinase kinase 5 (Homo sapiens) (UniProt Q13163); settings: Compound concentration 1000.0 nM
[26] = target: Tyrosine-protein kinase Mer (Homo sapiens) (UniProt Q12866); settings: Compound concentration 1000.0 nM
Sequence of Tyrosine-protein kinase Mer (Homo sapiens) (Q12866 whole entry): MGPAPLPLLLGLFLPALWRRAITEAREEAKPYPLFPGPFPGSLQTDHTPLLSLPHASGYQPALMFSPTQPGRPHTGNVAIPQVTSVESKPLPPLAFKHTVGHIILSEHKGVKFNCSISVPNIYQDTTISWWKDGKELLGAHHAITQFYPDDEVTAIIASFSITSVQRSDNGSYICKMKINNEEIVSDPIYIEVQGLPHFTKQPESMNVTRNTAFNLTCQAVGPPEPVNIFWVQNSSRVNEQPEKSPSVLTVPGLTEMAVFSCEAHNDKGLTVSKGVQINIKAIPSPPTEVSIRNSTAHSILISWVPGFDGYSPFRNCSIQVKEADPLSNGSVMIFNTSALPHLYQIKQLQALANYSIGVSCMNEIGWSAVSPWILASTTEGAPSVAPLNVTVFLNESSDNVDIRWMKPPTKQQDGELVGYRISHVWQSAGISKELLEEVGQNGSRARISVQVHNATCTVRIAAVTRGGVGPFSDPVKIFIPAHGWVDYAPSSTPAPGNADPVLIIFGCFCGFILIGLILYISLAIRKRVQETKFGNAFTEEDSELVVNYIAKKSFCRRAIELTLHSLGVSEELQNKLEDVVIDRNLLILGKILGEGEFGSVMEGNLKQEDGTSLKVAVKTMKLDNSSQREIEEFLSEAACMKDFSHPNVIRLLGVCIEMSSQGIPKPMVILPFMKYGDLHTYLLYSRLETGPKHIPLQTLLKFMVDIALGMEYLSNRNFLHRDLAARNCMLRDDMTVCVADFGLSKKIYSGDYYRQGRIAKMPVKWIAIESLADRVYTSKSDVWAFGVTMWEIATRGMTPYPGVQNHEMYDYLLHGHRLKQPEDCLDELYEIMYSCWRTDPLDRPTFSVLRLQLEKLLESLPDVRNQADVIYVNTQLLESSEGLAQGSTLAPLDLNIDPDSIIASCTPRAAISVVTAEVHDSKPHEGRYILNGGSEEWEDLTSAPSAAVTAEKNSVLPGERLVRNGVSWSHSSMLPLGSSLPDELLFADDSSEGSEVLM

[27] = target: Mitogen-activated protein kinase kinase kinase 11 (Homo sapiens) (UniProt Q16584); settings: Compound concentration 1000.0 nM
Sequence of Mitogen-activated protein kinase kinase kinase 11 (Homo sapiens) (Q16584 whole entry, looked up): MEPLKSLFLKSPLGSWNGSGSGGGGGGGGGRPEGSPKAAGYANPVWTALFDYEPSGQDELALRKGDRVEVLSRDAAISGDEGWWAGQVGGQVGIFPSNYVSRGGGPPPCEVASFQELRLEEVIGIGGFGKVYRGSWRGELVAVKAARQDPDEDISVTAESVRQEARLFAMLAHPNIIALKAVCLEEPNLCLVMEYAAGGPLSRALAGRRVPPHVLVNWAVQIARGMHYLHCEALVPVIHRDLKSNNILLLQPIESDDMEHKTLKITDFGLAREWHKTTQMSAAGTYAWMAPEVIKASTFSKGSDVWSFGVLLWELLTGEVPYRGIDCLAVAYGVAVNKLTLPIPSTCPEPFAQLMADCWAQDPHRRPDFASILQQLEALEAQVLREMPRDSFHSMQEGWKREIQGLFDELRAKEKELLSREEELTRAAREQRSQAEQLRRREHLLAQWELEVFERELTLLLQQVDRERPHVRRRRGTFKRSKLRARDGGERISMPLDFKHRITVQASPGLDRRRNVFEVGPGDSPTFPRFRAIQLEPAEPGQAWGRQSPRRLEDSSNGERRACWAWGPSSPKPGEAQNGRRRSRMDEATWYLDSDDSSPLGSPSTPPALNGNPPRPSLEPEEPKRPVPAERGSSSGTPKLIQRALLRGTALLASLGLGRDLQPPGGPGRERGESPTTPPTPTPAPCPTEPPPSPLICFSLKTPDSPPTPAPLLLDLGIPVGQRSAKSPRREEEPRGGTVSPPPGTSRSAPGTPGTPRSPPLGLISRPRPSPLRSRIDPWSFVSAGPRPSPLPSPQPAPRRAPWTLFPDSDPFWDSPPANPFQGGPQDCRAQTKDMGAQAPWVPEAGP

[28] = target: Macrophage-stimulating protein receptor (Homo sapiens) (UniProt Q04912); settings: Compound concentration 1000.0 nM
[29] = target: Myosin-IIIb (Homo sapiens) (UniProt Q8WXR4); settings: Compound concentration 1000.0 nM
[30] = tested on: Phosphatidylinositol 4,5-bisphosphate 3-kinase catalytic subunit alpha isoform (Homo sapiens), P42336 [C420R]; settings: Compound concentration 1000.0 nM
[31] = target: Protein kinase C iota type (Homo sapiens) (UniProt P41743); settings: Compound concentration 1000.0 nM
[32] = target: STE20-like serine/threonine-protein kinase (Homo sapiens) (UniProt Q9H2G2); settings: Compound concentration 1000.0 nM
[33] = target: Proto-oncogene tyrosine-protein kinase Src (Homo sapiens) (UniProt P12931); settings: Compound concentration 1000.0 nM
[34] = target: Tyrosine-protein kinase Srms (Homo sapiens) (UniProt Q9H3Y6); settings: Compound concentration 1000.0 nM
[35] = target: Serine/threonine-protein kinase 35 (Homo sapiens) (UniProt Q8TDR2); settings: Compound concentration 1000.0 nM
[36] = target: Non-receptor tyrosine-protein kinase TNK1 (Homo sapiens) (UniProt Q13470); settings: Compound concentration 1000.0 nM
[37] = target: Testis-specific serine/threonine-protein kinase 1 (Homo sapiens) (UniProt Q9BXA7); settings: Compound concentration 1000.0 nM
[38] = target: Serine/threonine-protein kinase WNK1 (Homo sapiens) (UniProt Q9H4A3); settings: Compound concentration 1000.0 nM
[39] = target: Serine/threonine-protein kinase WNK3 (Homo sapiens) (UniProt Q9BYP7); settings: Compound concentration 1000.0 nM
[40] = target: 5-hydroxytryptamine receptor 1B (Homo sapiens) (UniProt P28222); settings: Compound concentration 10.0 uM
[41] = target: 5-hydroxytryptamine receptor 5A (Homo sapiens) (UniProt P47898); settings: Compound concentration 10.0 uM
[42] = target: D(3) dopamine receptor (Homo sapiens) (UniProt P35462); settings: Compound concentration 10.0 uM
[43] = target: D(1B) dopamine receptor (Homo sapiens) (UniProt P21918); settings: Compound concentration 10.0 uM
[44] = target: Sodium-dependent dopamine transporter (Homo sapiens) (UniProt Q01959); settings: Compound concentration 10.0 uM
[45] = target: Muscarinic acetylcholine receptor M1 (Homo sapiens) (UniProt P11229); settings: Compound concentration 10.0 uM

Cc1c(NC(=O)c2cc(C(N)=O)nc3cc(F)ccc23)c(C(F)(F)F)nn1Cc1ccc(C#N)cc1 [BAY-876]
inactive: residual activity [1] 88% | residual activity [2] 80% | residual activity [3] 90% | residual activity [4] 89% | residual activity [5] 90% | residual activity [6] 100% | residual activity [7] 87% | residual activity [8] 81% | residual activity [9] 92% | residual activity [10] 90% | residual activity [11] 61% | residual activity [12] 83% | residual activity [13] 93% | residual activity [14] 91% | residual activity [15] 92% | residual activity [16] 78% | residual activity [17] 98% | residual activity [18] 99% | residual activity [19] 87% | residual activity [20] 65% | residual activity [21] 88% | residual activity [22] 94% | residual activity [23] 100% | residual activity [24] 86% | residual activity [25] 88% | residual activity [26] 100% | residual activity [27] 100% | residual activity [28] 76% | residual activity [29] 100% | residual activity [30] 70% | residual activity [31] 84% | residual activity [32] 100% | residual activity [33] 81% | residual activity [34] 62% | residual activity [35] 85% | residual activity [36] 81% | residual activity [37] 95% | residual activity [38] 80% | residual activity [39] 77% | inhibition [40] 2.6% | inhibition [41] -2.35% | inhibition [42] 1.46% | inhibition [43] -0.829% | inhibition [44] 8.22% | inhibition [45] 28.2%

Cc1c(NC(=O)c2cc(C(N)=O)nc3cc(F)ccc23)c(C(F)(F)F)nn1Cc1ccc(C(C)(C)C)cc1 [BAY-588]
inactive: residual activity [1] 100% | residual activity [2] 80% | residual activity [3] 100% | residual activity [4] 100% | residual activity [5] 98% | residual activity [6] 100% | residual activity [7] 100% | residual activity [8] 100% | residual activity [9] 100% | residual activity [10] 79% | residual activity [11] 96% | residual activity [12] 77% | residual activity [13] 100% | residual activity [14] 100% | residual activity [15] 94% | residual activity [16] 89% | residual activity [17] 100% | residual activity [18] 100% | residual activity [19] 83% | residual activity [20] 100% | residual activity [21] 82% | residual activity [22] 100% | residual activity [23] 100% | residual activity [24] 100% | residual activity [25] 78% | residual activity [26] 86% | residual activity [27] 100% | residual activity [28] 80% | residual activity [29] 100% | residual activity [30] 100% | residual activity [31] 98% | residual activity [32] 100% | residual activity [33] 100% | residual activity [34] 100% | residual activity [35] 100% | residual activity [36] 100% | residual activity [37] 100% | residual activity [38] 100% | residual activity [39] 97% | inhibition [40] -7.67% | inhibition [41] 8.32% | inhibition [42] 11.9% | inhibition [43] 2.96% | inhibition [44] 14.7% | inhibition [45] 37.2%

— ChEMBL document CHEMBL4507267 (2021)
